Read-outs that look alike come from different tables or passages of the source.
Tested on: MIA PaCa-2 pancreatic cancer cell line
Experiment: Cell proliferation assay (DAPI)
Assay type: cell-based
Conditions: Homo sapiens; for inhibition at 10 µM: read-out: % Inhibition of cell proliferation, MIA PaCa-2 % inh
Description: Cell lines: Human NSCLC cells NCI-H1975 and NCI-H1299, and tumor-derived pancreatic cancer cell lines Panc-1, MIA-PACA2, and BxPC3, were all purchased from American Type Culture Collection and grown in complete RPMI medium (BxPC3, NCI-H1975 and NCI-H1299) or DMEM-High Glucose (Panc1 and MIA-PaCa-2), supplemented with penicillin (100 U/mL), streptomycin (100 μg/mL), and 10% heat-inactivated FBS at 37° C. in a humidified incubator with 5% CO2.
Method: Cells were plated at 2000 to 5000 cells/well density in 96-wells plate and cultured ON. Small molecules to be tested were added to the cells in the final concentration of 10 µM in the presence of 0.3% DMSO and 10% FBS, and incubated for 2-4 days at 37° C. in a humidified incubator with 5% CO2. For IC50 value determination, serial dilutions of compounds were added to cells under the same conditions.
Assay: At the end of the incubation period, cell cultures were fixed with a 50-50 mixture (v/v) acetone-methanol for 10 minutes at −20° C., followed by rehydration in PBS for 10 minutes at room temperature. DNA total content was determined by staining cells with DAPI (1 ug/ml) in PBS for 10 minutes at room temperature, followed by 3 washes with PBS. After staining, DAPI fluorescence was recorded (358 nm excitation/461 nm emission) with the 96-well plate reader Molecular Devices Spectramax M3; degree of small molecule-dependent proliferation inhibition was calculated from raw data.

| IC50 (MIA PaCa-2) | IC50 (MIA PaCa-2 (Table 5A)) | Structure (SMILES) | inhibition at 10 µM (2-4 days, MIA PaCa-2) | inhibition at 10 µM (MIA PaCa-2 (Table 5A)) |
| --- | --- | --- | --- | --- |
|  |  | COc1cc(-c2sc3nc(-c4nccn4C)nc(N4CCC(OC)C4)c3c2-c2ccccc2)ccn1 (stereo not shown) [drawing 569] | 76 to 100% |  |
|  |  | O=C(NC1CCCC1)c1nc(-c2ccccn2)nc(O)c1O [drawing 599] | 26 to 50% |  |
|  |  | COc1c(O)nc(-c2ccccn2)nc1Oc1ccc2ncccc2c1 [drawing 588] | 1 to 25% |  |
| > 1000 nM |  | COCCNc1nc(-c2nccn2C)nc2sc(-c3cc(OC)ccc3Cl)c(-c3ccc(OC)cc3)c12 [drawing 563] | 76 to 100% |  |
| > 1000 nM |  | COCCCN(C)c1nc(-c2nccn2C)nc2sc(-c3ccn(C)n3)c(-c3ccccc3)c12 [drawing 543] | 76 to 100% |  |
|  |  | COC1CCN(c2nc(-c3nccn3C)nc3sc(-c4ccnn4C)c(-c4ccccc4)c23)C1 (stereo not shown) [drawing 570] | 26 to 50% |  |
|  | 750 to 1000 nM | COc1cccc(-c2sc3nc(-c4nccn4C)nc(NC4CCC(OC)C4)c3c2-c2ccccc2)c1F (stereo not shown) [drawing 618] |  | 76 to 100% |
|  |  | Cn1ccnc1-c1nc(O)c(O)c(C(=O)N2CCCC2)n1 [drawing 606] | 0% |  |
|  | < 500 nM | COc1cccc(Cn2ccnc2-c2nc(O)c3scc(-c4ccc(OCC(C)C)nc4)c3n2)c1 [drawing 635] |  | 76 to 100% |
|  |  | Oc1nc(-c2cn3cccnc3n2)nc2c(-c3ccccn3)csc12 [drawing 539] | 0% |  |
|  | > 1000 nM | CO[C@H]1C[C@@H](Nc2nc(-c3nccn3C)nc3sc(-c4ccn(C)n4)c(-c4ccccc4)c23)C1 [drawing 640] |  | 76 to 100% |
|  | > 1000 nM | CO[C@H]1C[C@H](Nc2nc(-c3nccn3C)nc3sc(-c4ccn(C)n4)c(-c4ccccc4)c23)C1 [drawing 641] |  | 76 to 100% |
|  |  | COCCN(C)C(=O)c1nc(-c2ccccn2)nc(O)c1O [drawing 602] | 0% |  |
|  |  | COC1CCN(c2nc(-c3nccn3C)nc3sc(-c4ccccc4Cl)c(-c4cscn4)c23)C1 (stereo not shown) [drawing 557] | 76 to 100% |  |
|  |  | COc1ccc(Cn2cnc(-c3nc(O)c4scc(-c5ccccn5)c4n3)c2)cc1 [drawing 541] | 76 to 100% |  |
|  | > 1000 nM | CCn1cc(Nc2nc(-c3ccccn3)nc(O)c2OC)cn1 [drawing 616] |  | 0% |
|  | > 1000 nM | CO[C@H]1C[C@@H](Nc2nc(-c3nccn3C)nc3sc(C(=O)NC(C)C)c(-c4ccccc4)c23)C1 [drawing 655] |  | 51 to 75% |
|  |  | CC(C)CNC(=O)c1nc(-c2ccccn2)nc(O)c1O [drawing 601] | 0% |  |
|  | > 1000 nM | COc1nc(-c2ccccn2)nc2c(-c3ccccn3)csc12 [drawing 648] |  | 51 to 75% |
|  | > 1000 nM | COC1CCN(c2nc(-c3nccn3C)nc3sc(-c4cccc(O)c4F)c(-c4ccccc4)c23)C1 (stereo not shown) [drawing 625] |  | 76 to 100% |
|  |  | Oc1nc(-c2nccn2Cc2ccccn2)nc2c(-c3ccccn3)csc12 [drawing 534] | 76 to 100% |  |
|  |  | COCCn1cc(-c2sc3nc(-c4nccn4C)nc(N4CCC(OC)C4)c3c2-c2ccccc2)cn1 (stereo not shown) [drawing 575] | 76 to 100% |  |

| IC50 (MIA PaCa-2) | IC50 (MIA PaCa-2 (Table 5A)) | Structure (SMILES) | inhibition at 10 µM (2-4 days, MIA PaCa-2) | inhibition at 10 µM (MIA PaCa-2 (Table 5A)) |
| --- | --- | --- | --- | --- |
|  |  | COC1CCN(c2nc(-c3nccn3C)nc3sc(-c4cnn(C)c4)c(-c4ccccc4)c23)C1 (stereo not shown) [drawing 577] | 76 to 100% |  |
|  |  | COC1CCN(c2nc(-c3nccn3C)nc3sc(-c4ccc(N)nc4C)c(-c4ccccc4)c23)C1 (stereo not shown) [drawing 579] | 76 to 100% |  |
|  |  | O=C(NCc1ccccc1)c1nc(-c2ccccn2)nc(O)c1O [drawing 597] | 26 to 50% |  |
|  |  | Cn1ccnc1-c1nc(O)c(O)c(C(=O)NC2CCCC2)n1 [drawing 607] | 0% |  |
|  |  | O=C(NC1CCC1)c1nc(-c2ccccn2)nc(O)c1O [drawing 603] | 0% |  |
| > 1000 nM |  | COc1cccc(-c2csc3c(O)nc(-c4nccn4C)nc23)c1Cl [drawing 528] | 76 to 100% |  |
|  | > 1000 nM | CO[C@H]1CC[C@@H](Nc2nc(-c3nccn3C)nc3sc(C(=O)NC(C)C)c(-c4ccccc4)c23)C1 [drawing 659] |  | 76 to 100% |
|  |  | CCN(CC)C(=O)c1nc(-c2nccn2C)nc(O)c1O [drawing 605] | 1 to 25% |  |
|  |  | COc1c(O)nc(-c2ccccn2)nc1Oc1ccccc1 [drawing 593] | 76 to 100% |  |
|  |  | COC1CCN(c2nc(-c3nccn3C)nc3sc(-c4ccc(CO)cc4)c(-c4ccccc4)c23)C1 (stereo not shown) [drawing 578] | 76 to 100% |  |
| > 1000 nM |  | COCCCNc1nc(-c2nccn2C)nc2sc(-c3ccn(C)n3)c(-c3ccc(OC)cc3)c12 [drawing 553] | 76 to 100% |  |
|  | > 1000 nM | Cn1ccc(-c2sc3nc(-c4nccn4C)nc(N[C@@H]4CC[C@H](O)C4)c3c2-c2ccccc2)n1 (racemic) [drawing 644] |  | 26 to 50% |
| > 1000 nM |  | Cn1ccc(-c2sc3nc(-c4nccn4C)nc(N4CCC5(CCOC5)C4)c3c2-c2ccccc2)n1 (stereo not shown) [drawing 551] | 26 to 50% |  |
|  |  | O=C(c1nc(-c2ccccn2)nc(O)c1O)N1CCCC1 [drawing 598] | 1 to 25% |  |
|  |  | COc1nscc1-c1sc2nc(-c3nccn3C)nc(N3CCC(OC)C3)c2c1-c1ccccc1 (stereo not shown) [drawing 581] | 76 to 100% |  |
|  | 750 to 1000 nM | CO[C@H]1CC[C@@H](Nc2nc(-c3nccn3C)nc3sc(-c4cccc5[nH]ncc45)c(-c4ccccc4)c23)C1 [drawing 624] |  | 76 to 100% |
|  |  | Cn1ccnc1-c1nc(O)c(O)c(C(=O)N2CCCCC2)n1 [drawing 608] | 1 to 25% |  |
|  | > 1000 nM | Cn1ccc(-c2sc3nc(-c4nccn4C)nc(O)c3c2-c2ccccc2)n1 [drawing 639] |  | 76 to 100% |
|  |  | Cc1cn(C)c(-c2nc(O)c3scc(-c4ccccn4)c3n2)n1 [drawing 537] | 76 to 100% |  |
| > 1000 nM |  | Cn1ccc(-c2sc3nc(-c4nccn4C)nc(NC4CCOCC4)c3c2-c2ccccc2)n1 [drawing 546] | 1 to 25% |  |
|  | 500 to 749 nM | CC(C)COc1ccc(-c2csc3c(O)nc(-c4nccn4Cc4ccccn4)nc23)cn1 [drawing 634] |  | 76 to 100% |
| > 1000 nM |  | COCC(C)Nc1nc(-c2nccn2C)nc2sc(-c3ccn(C)n3)c(-c3ccc(OC)cc3)c12 (stereo not shown) [drawing 554] | 76 to 100% |  |

| IC50 (MIA PaCa-2) | IC50 (MIA PaCa-2 (Table 5A)) | Structure (SMILES) | inhibition at 10 µM (2-4 days, MIA PaCa-2) | inhibition at 10 µM (MIA PaCa-2 (Table 5A)) |
| --- | --- | --- | --- | --- |
|  |  | COC1CCN(c2nc(-c3nccn3C)nc3sc(-c4ccccc4CO)c(-c4ccccc4)c23)C1 (stereo not shown) [drawing 580] | 76 to 100% |  |
|  |  | COc1cccc(Oc2nc(-c3ccccn3)nc(O)c2OC)c1 [drawing 590] | 0% |  |
|  | 750 to 1000 nM | CO[C@H]1CC[C@@H](Nc2nc(-c3nccn3C)nc3sc(-c4ccn(C)n4)c(C)c23)C1 [drawing 650] |  | 76 to 100% |
|  | 750 to 1000 nM | COC1CCC(Nc2nc(-c3nccn3C)nc3sc(-c4cccc5[nH]ncc45)c(-c4ccccc4)c23)C1 (stereo not shown) [drawing 623] |  | 76 to 100% |
|  |  | CC(C)CN(C)C(=O)c1nc(-c2ccccn2)nc(O)c1O [drawing 600] | 0% |  |
|  | > 1000 nM | CO[C@H]1C[C@@H](Nc2nc(-c3nccn3C)nc3sc(-c4ccn(C)n4)c(C)c23)C1 [drawing 649] |  | 76 to 100% |
|  |  | O=C(c1nc(-c2ccccn2)nc(O)c1O)N1CCOCC1 [drawing 595] | 0% |  |
| > 1000 nM |  | COc1cccc(-c2sc3nc(-c4nccn4C)nc(N4CCC(OC)C4)c3c2-c2cscn2)c1 (stereo not shown) [drawing 559] | 76 to 100% |  |
|  | > 1000 nM | COCCNC(=O)c1sc2nc(-c3nccn3C)nc(N[C@H]3C[C@@H](OC)C3)c2c1-c1ccccc1 [drawing 656] |  | 26 to 50% |
|  | 750 to 1000 nM | COc1cccc(-c2sc3nc(-c4nccn4C)nc(N[C@@H]4CC[C@H](OC)C4)c3c2C)c1F [drawing 629] |  | 76 to 100% |
|  | > 1000 nM | Cn1ccc(-c2sc3nc(-c4nccn4C)nc(N[C@H]4C[C@@H](O)C4)c3c2-c2ccccc2)n1 [drawing 643] |  | 0% |
|  |  | Cn1ccnc1-c1nc(O)c2scc(-c3ccccn3)c2n1 [drawing 529] | 76 to 100% |  |
|  | < 500 nM | COCCn1ccnc1-c1nc(O)c2scc(-c3ccc(OCC(C)C)nc3)c2n1 [drawing 633] |  | 76 to 100% |
|  |  | CN(Cc1ccccc1)Cc1nc(-c2ccccn2)nc(O)c1O | 0% |  |
|  |  | Cc1cc(Cn2ccnc2-c2nc(O)c3scc(-c4ccccn4)c3n2)on1 [drawing 533] | 76 to 100% |  |
|  |  | COc1ccc(Oc2nc(-c3ccccn3)nc(O)c2OC)cc1 [drawing 591] | 26 to 50% |  |
|  |  | COC1CCN(c2nc(-c3nccn3C)nn3cc(-c4ccccc4)c(-c4ccccc4)c23)C1 (stereo not shown) [drawing 613] | 76 to 100% |  |
|  |  | COc1ncccc1-c1sc2nc(-c3nccn3C)nc(N3CCC(OC)C3)c2c1-c1ccccc1 (stereo not shown) [drawing 573] | 76 to 100% |  |
|  | > 1000 nM | Cc1c(-c2ccn(C)n2)sc2nc(-c3nccn3C)nc(NCCCC(=O)N(C)C)c12 [drawing 652] |  | 0% |
|  | > 1000 nM | CO[C@H]1C[C@@H](Nc2nc(-c3ccccn3)nc3sccc23)C1 [drawing 637] |  | 1 to 25% |

Reference: US20250296938A1, “Compounds that Interact with the Ras Superfamily for the Treatment of Cancers, Inflammatory Diseases, Rasopathies, and Fibrotic Disease” (SHY Therapeutics, LLC, priority 2018, published 2025)
